Laboratory results reported in PubChem BioAssay AID1963448 (Molecular Pharmacology Branch, DTP, NCI, 2024).
Several values for one entry are separate records, joined by “and”; a condition that tells them apart may be missing. Equal values may be shown once.

Tested on: 616215-338-R-J1-PDC complex spheroid growth, % test/control
Experiment: Anticancer human tumor 616215-338-R-J1-PDC patient-derived colon adenocarcinoma cell line growth inhibition [Asc]
Details: for viability, T/C: stronger effect = lower value
Summary of the method: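 Tumor cells were grown as complex spheroids with human endothelial cells (HUVEC) and human mesenchymal stem cells as stroma. Agents were tested alone and in combination, in half-log steps down from the clinical Cmax, or from 10 microM where Cmax was unknown.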

[1] = curve of first compound, second compound 0.00316 µM
[2] = curve of first compound, second compound 0.01 µM
[3] = curve of first compound, second compound 0.0316 µM
[4] = curve of first compound, second compound 0.1 µM
[5] = curve of first compound, second compound 0.316 µM
[6] = curve of first compound, second compound 1 µM
[7] = second compound 0.00316 µM, first compound 0.0316 µM
[8] = second compound 0.00316 µM, first compound 0.1 µM
[9] = second compound 0.00316 µM, first compound 0.316 µM
[10] = second compound 0.00316 µM, first compound 1 µM
[11] = second compound 0.01 µM, first compound 0.0316 µM
[12] = second compound 0.01 µM, first compound 0.1 µM
[13] = second compound 0.01 µM, first compound 0.316 µM
[14] = second compound 0.01 µM, first compound 1 µM
[15] = second compound 0.0316 µM, first compound 0.0316 µM
[16] = second compound 0.0316 µM, first compound 0.1 µM
[17] = second compound 0.0316 µM, first compound 0.316 µM
[18] = second compound 0.0316 µM, first compound 1 µM
[19] = second compound 0.1 µM, first compound 0.00316 µM
[20] = second compound 0.1 µM, first compound 0.01 µM
[21] = second compound 0.1 µM, first compound 0.0316 µM
[22] = second compound 0.1 µM, first compound 0.1 µM
[23] = second compound 0.1 µM, first compound 0.316 µM
[24] = second compound 0.1 µM, first compound 1 µM
[25] = second compound 0.316 µM, first compound 0.00316 µM
[26] = second compound 0.316 µM, first compound 0.01 µM
[27] = second compound 0.316 µM, first compound 0.0316 µM
[28] = second compound 0.316 µM, first compound 0.1 µM
[29] = second compound 0.316 µM, first compound 0.316 µM
[30] = second compound 0.316 µM, first compound 1 µM
[31] = second compound 1 µM, first compound 0.00316 µM
[32] = second compound 1 µM, first compound 0.01 µM
[33] = second compound 1 µM, first compound 0.0316 µM
[34] = second compound 1 µM, first compound 0.1 µM
[35] = second compound 1 µM, first compound 0.316 µM
[36] = second compound 1 µM, first compound 1 µM
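Also: spheroids exposed to agents for seven days before readout.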
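For viability, T/C in this document: 100% = DMSO vehicle control viability.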

Compound `COc1c(OCCCN2CCOCC2)ccc2c3n(c(=NC(=O)c4cnc(N)nc4)nc12)CCN3` + CNC(C)C(=O)NC1CN(S(=O)(=O)c2cccc(S(=O)(=O)N3CCC4CCC(C(=O)NC(c5ccccc5)c5ccccc5)N4C(=O)C(NC(=O)C(C)NC)C3)c2)CCC2CCC(C(=O)NC(c3ccccc3)c3ccccc3)N2C1=O has an IC50 [1] of 0.0533 µM, an IC50 [2] of 0.0549 µM and an IC50 [3] of 0.047 µM. It also gave an IC50 [4] of 0.0464 µM, an IC50 [5] of 0.0524 µM and an IC50 [6] of 0.0403 µM. The viability, T/C (second compound 0.00316 µM, first compound 0.00316 µM) was 107%, the viability, T/C (second compound 0.00316 µM, first compound 0.01 µM) was 83.5% and the viability, T/C [7] was 68.8%. For the same compound, the viability, T/C [8] was 30.4%, the viability, T/C [9] was 14.9% and the viability, T/C [10] was 2.9%. It also gave a viability, T/C (second compound 0.01 µM, first compound 0.00316 µM) of 98.6%, a viability, T/C (second compound 0.01 µM, first compound 0.01 µM) of 101% and a viability, T/C [11] of 64%. The viability, T/C [12] was 32.5%, the viability, T/C [13] was 9.38% and the viability, T/C [14] was 2.23%. The viability, T/C (second compound 0.0316 µM, first compound 0.00316 µM) was 94.1%, the viability, T/C (second compound 0.0316 µM, first compound 0.01 µM) was 97.8% and the viability, T/C [15] was 59.5%. For the same compound, the viability, T/C [16] was 26.1%, the viability, T/C [17] was 14.3% and the viability, T/C [18] was 1.77%. The viability, T/C [19] was 101%, the viability, T/C [20] was 92.4% and the viability, T/C [21] was 56.7%. For the same compound, the viability, T/C [22] was 30.4%, the viability, T/C [23] was 14.1% and the viability, T/C [24] was 1.87%. For the same compound, the viability, T/C [25] was 93.4%, the viability, T/C [26] was 97.8% and the viability, T/C [27] was 65.1%. It also gave a viability, T/C [28] of 27.7%, a viability, T/C [29] of 15.3% and a viability, T/C [30] of 3.07%. For the same compound, the viability, T/C [31] was 87.4%, the viability, T/C [32] was 89.4% and the viability, T/C [33] was 52.8%. For the same compound, the viability, T/C [34] was 26.8%, the viability, T/C [35] was 16.8% and the viability, T/C [36] was 6.17%.

Work on `C=CC(=O)N1CCN(c2nc(=O)n(-c3c(C)ccnc3C(C)C)c3nc(-c4c(O)cccc4F)c(F)cc23)C(C)C1` (stereo unspecified) + CNC(C)C(=O)NC1CN(S(=O)(=O)c2cccc(S(=O)(=O)N3CCC4CCC(C(=O)NC(c5ccccc5)c5ccccc5)N4C(=O)C(NC(=O)C(C)NC)C3)c2)CCC2CCC(C(=O)NC(c3ccccc3)c3ccccc3)N2C1=O yielded an IC50 [1] of 4.24 µM, an IC50 [2] of 2.68 µM and an IC50 [3] of 4.24 µM. For the same compound, the IC50 [4] was 3.32 µM, the IC50 [5] was 2.22 µM and the IC50 [6] was 3.25 µM. It also gave a viability, T/C [7] of 109%, a viability, T/C [8] of 99.2% and a viability, T/C [9] of 88%. For the same compound, the viability, T/C [10] was 78.2%, the viability, T/C (second compound 0.00316 µM, first compound 3.16 µM) was 58% and the viability, T/C (second compound 0.00316 µM, first compound 10 µM) was 29.4%. The viability, T/C [11] was 110%, the viability, T/C [12] was 93.2% and the viability, T/C [13] was 95.5%. The viability, T/C [14] was 66.7%, the viability, T/C (second compound 0.01 µM, first compound 3.16 µM) was 47.3% and the viability, T/C (second compound 0.01 µM, first compound 10 µM) was 27.8%. The viability, T/C [15] was 106%, the viability, T/C [16] was 101% and the viability, T/C [17] was 96%. It also gave a viability, T/C [18] of 76.9%, a viability, T/C (second compound 0.0316 µM, first compound 3.16 µM) of 58.1% and a viability, T/C (second compound 0.0316 µM, first compound 10 µM) of 29.2%. It also gave a viability, T/C [21] of 95.8%, a viability, T/C [22] of 101% and a viability, T/C [23] of 81.5%. It also gave a viability, T/C [24] of 81.1%, a viability, T/C (second compound 0.1 µM, first compound 3.16 µM) of 48.6% and a viability, T/C (second compound 0.1 µM, first compound 10 µM) of 28.8%. The viability, T/C [27] was 92.6%, the viability, T/C [28] was 105% and the viability, T/C [29] was 104%. It also gave a viability, T/C [30] of 61.8%, a viability, T/C (second compound 0.316 µM, first compound 3.16 µM) of 53% and a viability, T/C (second compound 0.316 µM, first compound 10 µM) of 36.4%. For the same compound, the viability, T/C [33] was 104%, the viability, T/C [34] was 100% and the viability, T/C [35] was 100%. It also gave a viability, T/C [36] of 68.6%, a viability, T/C (second compound 1 µM, first compound 3.16 µM) of 54.6% and a viability, T/C (second compound 1 µM, first compound 10 µM) of 28.9%.

With `NC1CCC(NC2CC2c2ccccc2)CC1` (stereo unspecified) the viability, T/C (compound 0.000316 µM) was 96.5% and 100% and 109%, the viability, T/C (compound 0.001 µM) was 102% (2×) and 97.4% and the viability, T/C (compound 0.00316 µM) was 90.4% and 95.5% and 101%. For the same compound, the viability, T/C (compound 0.01 µM) was 92.3% and 96.8% and 93.5%, the viability, T/C (compound 0.0316 µM) was 91.6% and 91.8% and 99.5% and the viability, T/C (compound 0.1 µM) was 92.8% and 94.4% and 97.4%. For the same compound, the IC50 (curve of compound) was > 0.1 µM.

With `NC1CCC(NC2CC2c2ccccc2)CC1` (stereo unspecified) + Cc1c(S(C)(=O)=O)c(-c2cc(F)cc(N3CCN(c4ccc(NS(=O)(=O)c5ccc(NC(CCN6CCC(C(=O)OCCCP(=O)(O)O)CC6)CSc6ccccc6)c(S(=O)(=O)C(F)(F)F)c5)cc4)CC3)c2)c(-c2ccc(Cl)cc2)n1C(C)C the IC50 [4] was > 0.1 µM, the IC50 [5] was > 0.1 µM and the IC50 [6] was > 0.1 µM. The IC50 (curve of first compound, second compound 3.16 µM) was < 0.000316 µM, the IC50 (curve of first compound, second compound 10 µM) was < 0.000316 µM and the viability, T/C (second compound 0.1 µM, first compound 0.000316 µM) was 85.7%. For the same compound, the viability, T/C (second compound 0.1 µM, first compound 0.001 µM) was 83%, the viability, T/C [19] was 89% and the viability, T/C [20] was 85.8%. For the same compound, the viability, T/C [21] was 83.2%, the viability, T/C [22] was 81.7% and the viability, T/C (second compound 0.316 µM, first compound 0.000316 µM) was 86.5%. The viability, T/C (second compound 0.316 µM, first compound 0.001 µM) was 79.6%, the viability, T/C [25] was 78.3% and the viability, T/C [26] was 78.7%. The viability, T/C [27] was 79.5%, the viability, T/C [28] was 79% and the viability, T/C (second compound 1 µM, first compound 0.000316 µM) was 73.5%. The viability, T/C (second compound 1 µM, first compound 0.001 µM) was 68.1%, the viability, T/C [31] was 64.8% and the viability, T/C [32] was 62.5%. It also gave a viability, T/C [33] of 61.8%, a viability, T/C [34] of 60.8% and a viability, T/C (second compound 3.16 µM, first compound 0.000316 µM) of 37.5%. The viability, T/C (second compound 3.16 µM, first compound 0.001 µM) was 40.5%, the viability, T/C (second compound 3.16 µM, first compound 0.00316 µM) was 36.6% and the viability, T/C (second compound 3.16 µM, first compound 0.01 µM) was 32%. It also gave a viability, T/C (second compound 3.16 µM, first compound 0.0316 µM) of 31.2%, a viability, T/C (second compound 3.16 µM, first compound 0.1 µM) of 34.7% and a viability, T/C (second compound 10 µM, first compound 0.000316 µM) of 24.5%. For the same compound, the viability, T/C (second compound 10 µM, first compound 0.001 µM) was 22.4%, the viability, T/C (second compound 10 µM, first compound 0.00316 µM) was 21.8% and the viability, T/C (second compound 10 µM, first compound 0.01 µM) was 24%. It also gave a viability, T/C (second compound 10 µM, first compound 0.0316 µM) of 20% and a viability, T/C (second compound 10 µM, first compound 0.1 µM) of 21.5%.
